In test [1] the target is T1, Peroxisome proliferator-activated receptor gamma (Homo sapiens) (UniProt P37231).
T1 sequence (whole entry): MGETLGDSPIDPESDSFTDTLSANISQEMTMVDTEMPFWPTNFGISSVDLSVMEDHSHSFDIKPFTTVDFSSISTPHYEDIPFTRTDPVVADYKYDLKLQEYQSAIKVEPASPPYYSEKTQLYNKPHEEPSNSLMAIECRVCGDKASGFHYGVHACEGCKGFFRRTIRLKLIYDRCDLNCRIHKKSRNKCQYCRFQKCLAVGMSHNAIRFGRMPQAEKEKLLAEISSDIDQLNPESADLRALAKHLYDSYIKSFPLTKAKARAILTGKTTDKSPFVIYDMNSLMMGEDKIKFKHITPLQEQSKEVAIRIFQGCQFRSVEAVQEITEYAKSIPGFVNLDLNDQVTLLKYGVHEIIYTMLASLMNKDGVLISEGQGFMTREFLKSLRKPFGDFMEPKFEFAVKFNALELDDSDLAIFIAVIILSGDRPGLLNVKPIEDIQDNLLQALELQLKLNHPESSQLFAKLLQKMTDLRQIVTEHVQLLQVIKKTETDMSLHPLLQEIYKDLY
Kind of test: (§1) Antagonist activity at PPARgamma (unknown origin). The note with it: filed as antagonist.

Test [2] deals with T2, Peroxisome proliferator-activated receptor gamma (Homo sapiens, UniProt P37231).
T2 sequence (P37231 whole entry): T1 sequence (whole entry)
The description is as §1.

Test [3] has as its target T1, Peroxisome proliferator-activated receptor gamma (Homo sapiens). Nature of the test: Inhibition of PPARgamma (unknown origin).

Structures are written as SMILES. The source made the active and inactive calls. No cut-off for these calls is given here.

Regarding `Cc1cc([N+](=O)[O-])ccc1NS(=O)(=O)c1cc(Cl)ccc1Cl`, the result in test [1] was Active.
Still for that read-out and setting: then `COP(=O)(OC)OC(c1ccc(Cl)cc1)P(=O)(OC)OC` (centres undefined), with “Active”.
Usually IC50 stands for the concentration at which inhibition is half-maximal. Lower therefore signals higher potency. On to `O=C(Nc1ccccc1)c1cc([N+](=O)[O-])ccc1Cl`, for which half-maximal inhibition in test [2] (IC50) required 3.3 nM.
Consider `COc1ccc2nccc(NC(=O)c3cc([N+](=O)[O-])ccc3Cl)c2c1`, for which the inhibition result in test [3] is “Active”.
